{"source": "patent US20240139210A1", "about": "“TREATMENT OF NF-KB-MEDIATED DISEASE” (ReveraGen BioPharma, Inc., priority 2020, published 2024)", "key": {"[1]": {"test_system": "ambulant boys aged 4 to <7 years with DMD", "test": "VBP15-004 growth (height Z scores)", "type": "in vivo, human", "conditions": "prednisone 0.75 mg/kg/day", "from_the_text": "(§1) The second period of 24 weeks, where all participants receive vamorolone treatment on either of the two dose levels, will continue to capture additional longer-term safety and tolerability data."}, "[2]": {"test_system": "ambulant boys aged 4 to <7 years with DMD", "test": "VBP15-004 adverse events", "design": "species or system human", "conditions": "male, human, in vivo, 24 weeks", "from_the_text": "as §1\nThe study completion rate at 24 weeks was 94% (or 114 of 121 participants).\nPre-specified AESIs typically for corticosteroids were higher in prednisone-treated subjects than vamorolone-treated subjects after 24 weeks of treatment (Table 10)."}, "[3]": {"test_system": "boys with DMD", "test": "CINRG 12-month prednisone clinical trial, external comparator", "type": "in vivo, human", "conditions": "vamorolone 18-month treatment versus prednisone trial 12-month treatment", "experimental": "As with the CINRG DNHS comparators, group-matching criteria were prespecified in the iSAP, and 2 independent statisticians carried out the participant matching. […] There was no corresponding 12-month assessment in vamorolone-treated participants. (Assessments of vamorolone-treated trial participants were 0, 3, 6, and 18 months).\nParticipants in the corticosteroid-treated CINRG DNHS group were treated for at least 18 months, but the total duration, dose, and regimens varied."}, "[4]": {"test_system": "ambulant boys aged 4 to <7 years with DMD", "test": "VBP15-004 bone turnover biomarkers", "type": "in vivo, human", "conditions": "Prednisone 0.75 mg (N = 24)"}, "[5]": {"test_system": "participants with DMD", "conditions": "CINRG DNHS, deflazacort n = 94, prednisone n = 80; cited from earlier work"}, "[6]": {"test_system": "boys with DMD", "conditions": "cited from earlier work; for LS Mean change in height percentiles for age: 12-month treatment period, DMD"}, "[7]": {"conditions": "0.9 mg/kg/day deflazacort (n = 68), 0.75 mg/kg/day prednisone (n = 63)"}}, "note": "Where two headings read alike, the source gives them in different places."}
{"smiles": "C[C@]12C=CC(=O)C=C1CC[C@@H]1[C@@H]2C(=O)C[C@@]2(C)[C@H]1CC[C@]2(O)C(=O)CO", "note": "[Prednisone, prednisone]", "values": [{"measurement": "change in height Z scores from baseline to Week 24", "setting": "[1]", "value": "growth deceleration"}, {"measurement": "clinically relevant psychiatric events, subjects", "setting": "[2]", "value": 19.4, "unit": "%"}, {"measurement": "incidence of behavior problems", "setting": "[2]", "value": 32.3, "unit": "%"}, {"measurement": "moderate/severe behavior problems, subjects", "setting": "[2]", "value": 22.6, "unit": "%"}, {"measurement": "Mean BMI z-score, LS mean difference (SE), ANCOVA", "setting": "[3]", "value": "0.066 (0.193)"}, {"measurement": "Mean height percentile for age, LS mean difference (SE), ANCOVA", "setting": "[3]", "value": "10.37 (3.86) percentile"}, {"measurement": "Osteocalcin, mean (SEM) change at Week 24", "setting": "[4]", "value": "−15.2 (2.7) ng/ml"}, {"measurement": "Procollagen 1 N-Terminal Propeptide (P1NP), mean (SEM) change at Week 24", "setting": "[4]", "value": "−134 (22) ng/mL"}, {"measurement": "Type I Collagen C-Telopeptides (CTX), mean (SEM) change at Week 24", "setting": "[4]", "value": "−300 (43) pg/mL"}]}
{"smiles": "CC(=O)OCC(=O)[C@@]12N=C(C)O[C@@H]1C[C@H]1[C@@H]3CCC4=CC(=O)C=C[C@]4(C)[C@H]3[C@@H](O)C[C@@]12C", "note": "[Deflazacort, deflazacort]", "values": [{"measurement": "Incidence of physician-reported Cushingoid", "setting": "[5]", "value": 72, "unit": "%"}, {"measurement": "Incidence of physician-reported behavior change", "setting": "[5]", "value": 33, "unit": "%"}, {"measurement": "Incidence of physician-reported weight gain", "setting": "[5]", "value": 63, "unit": "%"}, {"measurement": "Incidence of physician-reported Cushingoid", "setting": "[6]; [7]", "value": 60.3, "unit": "%"}, {"measurement": "Incidence of physician-reported behavior change", "setting": "[6]; [7]", "value": 9, "unit": "%"}, {"measurement": "Incidence of physician-reported hypertrichosis/hirsutism", "setting": "[6]; [7]", "value": 35, "unit": "%"}, {"measurement": "Incidence of physician-reported weight gain", "setting": "[6]; [7]", "value": 27.9, "unit": "%"}, {"measurement": "LS Mean change in height percentiles for age", "setting": "[6]", "value": "−11.4", "unit": "percentile"}, {"measurement": "LS Mean change in height percentiles for age", "setting": "[6]; listed as deflazacort", "value": "−11.43", "unit": "percentile"}]}
